Experimental data as given in patent US20170058264A1, “FORMATION OF MULTICELLULAR TUMOROIDS AND USES THEREOF” (UNIVERSITY OF SOUTH FLORIDA, priority 2014, published 2017).

Key:
Assay type in all cases: cell-based
BT474 tumoroids [1] = assay: Lapatinib response of BT474 tumoroids in monoculture or co-culture, cell viability by PrestoBlue assay; details: Homo sapiens, BT-474, 72 h, about 72 hours
Method: (§1) On day 2 after culturing, cells were treated with the indicated concentrations (μM) of Lapatinib for about 72 hours. Cell viability was measured by PrestoBlue® assay.
(§2) The sensitivity of tumoroids derived from monoculture or co-culture of BT474 and HCC1569 to Lapatinib was examined. Lapatinib is a dual small molecule tyrosine kinase inhibitor targeting EGFR and HER2. […] Similar results were obtained when established tumoroids were treated with Lapatinib.

HCC1569 tumoroids = assay: Lapatinib response of HCC1569 tumoroids in monoculture or co-culture, cell viability by PrestoBlue assay; details: HCC1569 cultured in the presence of ECs and CAFs vs monoculture
Method: as §1, §2

[2] = target: BT474 co-cultured tumoroids; assay: Ki-67 expression by immunohistochemistry and tumoroid formation in Lapatinib treated BT474 tumoroids; details: 72 hours
Method: Ki-67 can be used as a surrogate marker of clinical efficacy in cancer trials. Expression of Ki-67. Monoculture and Co-culture tumoroids were treated with increasing concentrations of Lapatinib (0-10 μM). Tumoroids were fixed and immunostained for […].

BT474 tumoroids [3] = assay: VEGF, IL-6 and TGF-β1 in day 5 culture supernatants of BT474 tumoroids by ELISA; details: co-cultured tumoroids; Lapatinib about 2.5 μM-5 μM; day 5 supernatants
Method: BT474 tumoroids were monocultured or co-cultured in the presence or absence of Lapatinib (2.5-10 μM) and the levels of VEGF, IL-6, and TGF-β1 in the day 5 culture supernatants were determined by ELISA. * p<0.05.
To identify and evaluate the biomarkers of clinical efficacy, both monoculture and co-culture tumoroids were treated with increasing concentrations of Lapatinib (about 0 to about 10 μM). Five days after culture, the supernatants of the culture were tested for levels of VEGF, IL-6, and TGF-β. […] BT474 tumoroids were mono-cultured or co-cultured in the presence or absence of Lapatinib (2.5-10 μM) and the levels of VEGF, IL-6, and TGF-β1 in the day 5 culture supernatants were determined by ELISA. * p<0.05.

[4] = system: BT474 tumoroids (SCTs and MCTs); assay: Quantibody Array (multiplexed sandwich ELISA) of factors in day 5 culture supernatants of BT474 SCTs and MCTs
Method: BT474 tumoroids (SCTs, blue bars and MCTs, red bars) were cultured in the presence or absence of Lapatinib (0.5-12.5 μM), as in FIGS. 9A-9B, and the levels of IL-6, IL-8, MCP-1 in the day 5 culture supernatants were determined by Sandwich ELISA (FIGS. 20-21). * p<0.05.
BT474 tumoroids (SCTs, blue bars and MCTs, red bars) were cultured in the presence or absence of Lapatinib (0.5-12.5 μM), as in FIGS. 9A-9B, and the levels of PDGF-BB, DKK-1, OPG in the day 5 culture supernatants were determined by Sandwich ELISA (FIGS. 20-21). * p<0.05.
BT474 tumoroids (SCTs, blue bars and MCTs, red bars) were cultured in the presence or absence of Lapatinib (0.5-12.5 μM), as in FIGS. 9A-9B, and the levels of MMP-3 in the day 5 culture supernatants were determined by Sandwich ELISA (FIGS. 20-21). * p<0.05.
Additionally, to characterize factors and molecules released in SCTs and MCTs culture, a human Quantibody Array (RayBiotech Inc.), which utilizes a multiplexed sandwich ELISA assay and enables detection of multiple proteins/factors simultaneously, was used. […] This list includes adhesion molecules (E-selectin, ICAM-1, P-Cadherin, VE-cadherin), \growth factors (aFGF, activin A, […] (AR), bFGF, bone morphogenic protein (BMP)-2, BMP-4, BMP-6, BMP-7, BMP-9, dickkopf-1 (DKK-1), IGF-1, osteoprotegerin (OPG), osteopontin (OPN), PDGF-BB, TGFβ1, TGFβ2, TGFβ3), chemokines (monocyte chemotactic protein 1 (MCP-1)), macrophage inflammatory protein (MIP)-1α, VCAM-1), cytokines (IL-1α, IL-1β, IL-6, IL-8, IL-11, IL-17, M-CSF), receptor activator of NFkB (RANK), osteoactivin, SDF-1α, TNF related activation induced cytokine (TRANCE)) and matrix metalloproteinases (MMPs), such as MMP-2, -3, -9, -13.
To determine whether any of these factors are expressed in SCTs and MCTs, we incubated QAH-BMA-1000 array with a pool of culture supernatants of BT474-SCTs and MCTs in quadruplets. Experiments were conducted using manufacturer's protocol. An appropriate positive control was used to normalize the signal intensity. […] These include, growth factors, such as PDGF-BB, OPG and DKK-1, chemokine such as MCP-1, IL-6 and IL-8, and protease MMP-3 (see e.g. FIGS. 23A-25.)
Lapatinib treated cultures were examined for factors that are found differentially expressed in MCTs, compared to SCTs.

BT-474 SCTs = assay: Lapatinib response of BT-474 SCTs cultured on Matrigel or FiSS, Presto Blue cell viability; details: 3 d old SCTs; examined after 72 hrs
Method: Cells (3×10^3) were cultured on a layer of Matrigel coated plate in the presence of growth medium supplemented with 10% Matrigel. Three days after culture, cells were treated with indicated concentrations of Lapatinib and examined after 72 hrs. Spheroids were stained with calcein AM and examined by fluorescent microscope.
To benchmark FiSS-tumoroids against Matrigel-based 3D-culture for prediction of clinical efficacy, 3 d old BT-474 SCTs (cultured on Matrigel or FiSS) were treated with Lapatinib and examined tumoroid formation (FIGS. 26A-26D) and cell viability (FIGS. 27A-27B). Although Matrigel induced numerous smaller size tumoroids compared to FiSS tumoroids, their response to Lapatinib was similar as shown in FIGS. 27A-27B.

BT474 tumoroids [5] = assay: High-content analysis (Operetta) of Ki-67 immunostaining in BT474 tumoroids; details: different concentrations of Lapatinib; about 72 hrs
Method: Quantification of immunostaining was completed using Operetta.
To optimize quantification of high content imaging for BT474 tumoroids were incubated for 72 h and then imaged on the Operetta HCI System with a 20× objective. Single plane z-stacked images of BT474 tumoroids on scaffolds were stained with DAPI and images were acquired using the Operetta high content imaging system from Perkin Elmer. Representative fields were selected at 20× magnification and z-stacks of these fields were acquired with an interval of 2 um between each z-plane. Z-stacks were analyzed using the image processing software ImageJ (NIH). […] Using HCA we have quantified changes in Ki-67 expression in BT474 tumoroids treated with different concentrations of Lapatinib.

[6] = MCTs, Lapatinib 0.5-12.5 μM, dose dependent

SMILES: CS(=O)(=O)CCNCc1ccc(-c2ccc3ncnc(Nc4ccc(OCc5cccc(F)c5)c(Cl)c4)c3c2)o1 [Lapatinib]
- IC50 (BT474 tumoroids [1]; BT474 cells cultured on 2D or FiSS (monoculture)): < 2.5 µM
- IC50 (BT474 tumoroids [1]; MCTs, in the presence of ECs and CAFs): > 10 µM
- resistance to Lapatinib (HCC1569 tumoroids): increase in resistance
- Ki-67 staining ([2]; Lapatinib 2.5 μM): completely abrogated
- tumoroid formation ([2]; Lapatinib 2.5 mM as printed): inhibited tumoroid formation
- secretion of IL-6 (BT474 tumoroids [3]): significantly decreased
- secretion of TGF-β (BT474 tumoroids [3]): significantly decreased
- secretion of VEGF (BT474 tumoroids [3]): significantly decreased
- reduction of MCP-1 expression ([4]; MCTs, 12.5 uM Lapatinib): ≤ 50%
- DKK-1 expression ([4]; MCTs, Lapatinib 0.5-12.5 μM): reduced significantly
- MMP-3 expression ([4]; MCTs, Lapatinib 0.5-12.5 μM): reduced only marginally
- IL-6 in culture supernatants [4, 6]: reduced to basal level
- IL-8 in culture supernatants [4, 6]: reduced to basal level
- PDGF-BB expression ([4]; SCTs and MCTs, Lapatinib 0.5-12.5 μM): did not alter
- MCP-1 expression ([4]; SCTs, Lapatinib 0.5-12.5 μM): abolished MCP-1 expression completely
- response to Lapatinib (cell viability), Matrigel vs FiSS tumoroids (BT-474 SCTs): similar
- Ki-67 expression (relative intensity, HCA) (BT474 tumoroids [5]): dose-dependent Ki-67 expression
